Test results taken from US4579841A, “Dipeptide derivatives having opiate activity” (University Patents, Inc., priority 1981, dated 1986).
Where a SMILES comes first, the peptide text is derived from it. [ ]: non-standard residue; d: D form.

Test system: electrically stimulated guinea pig ileum
Assay: In vitro assay on the electrically stimulated guinea pig ileum (Chipkin, et al.)
Assay type: cell-based
Conditions: potency relative to methionine-enkephalin=100
Description: Peptides were assayed for biological activity in vitro on the electrically stimulated guinea pig ileum, using the procedure described by Chipkin, et al. (Life Sciences 28:1517-1522, 1981). All potencies of the peptides in this assay are reported relative to the potency of methionine-enkephalin=100. Analgesic activity of the peptides in vivo was assayed by the tail-flick method following intracerebroventricular injection, as described in the Chipkin, et al., reference. The standard for this assay was Tyr-D-Ala-Gly-Phe-Met-amide.
*(Assay on the stimulated guinea pig ileum according to Chipkin, et al.;
standard peptide is methionineenkephalin.)

How did the “Relate In Vitro Potency” value turn out when `NC(=O)[C@@H](Cc1ccccc1)NC(=O)[C@@H](N)Cc1ccc(O)cc1` [Tyr--D-Phe--NH2] (H-Tyr-[dF]-NH2) was run?
The value was 0.1.
